Values joined by “and” are separate entries in the source; they are usually repeats but may differ in a detail not shown here. Identical values can stand only once. Like-named read-outs stand apart in the source and are kept apart here.

Data set [1] deals with T1, rat brain MAO-A (Rattus norvegicus, UniProt P21396).
T1 construct: from tissue; host or cells: rat brain homogenate
T1 sequence (P21396 1-526): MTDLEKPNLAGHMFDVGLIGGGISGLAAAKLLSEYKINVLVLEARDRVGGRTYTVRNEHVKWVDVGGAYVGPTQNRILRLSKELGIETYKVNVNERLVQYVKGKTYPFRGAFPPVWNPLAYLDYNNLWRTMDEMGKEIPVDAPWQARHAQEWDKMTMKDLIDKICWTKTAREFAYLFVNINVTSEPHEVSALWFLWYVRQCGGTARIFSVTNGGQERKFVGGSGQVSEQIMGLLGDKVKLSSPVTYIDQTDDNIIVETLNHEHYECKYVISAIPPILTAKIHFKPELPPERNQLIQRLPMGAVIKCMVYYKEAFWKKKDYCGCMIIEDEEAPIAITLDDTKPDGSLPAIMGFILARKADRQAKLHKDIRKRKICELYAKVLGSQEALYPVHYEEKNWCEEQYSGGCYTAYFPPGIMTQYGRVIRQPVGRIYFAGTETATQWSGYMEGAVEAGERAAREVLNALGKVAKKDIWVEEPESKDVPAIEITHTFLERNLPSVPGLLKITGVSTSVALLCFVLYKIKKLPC
The data set can be described thus: biochemical. The protocol: (§1) Rats were decapitated and the brains were quickly taken into a pre-weighted ice-cold sucrose buffer (10 mM Tris-HCl buffer, pH 7.4, containing 0.32 M sucrose), and their weights were measured. The brains were homogenized at 0-4° C. in 0.32 M sucrose (one part tissue to 20 parts sucrose) in a Teflon glass homogenizer. The resultant homogenates were used to determine MAO activity. Protein concentration was determined with Bradford reagent at 595 nm, using bovine serum albumin as a standard.
(§2) The activity of MAO-A and MAO-B were determined by the adapted method of Tipton & Youdim (Tipton et al. 1983). Briefly, the multifunctional compound tested was added to a suitable dilution of the enzyme preparation (70 μg MAO-B and 150 μg MAO-A) in 0.05 M phosphate buffer (pH 7.4). The mixture was incubated together with 0.05 μM 1-deprenyl, a specific inhibitor of MAO-B (for determination of MAO-A activity in the presence of the test compound) or 0.05 μM clorgyline a specific inhibitor of MAO-A (for determination of MAO-B activity). […] The reaction was stopped with 2M ice-cold citric acid, and the radioactive metabolites (5-hydroxytryptaldehyde and phenylacetaldehyde) were extracted by addition of 2 ml of ethylacetate/toluene (1:1 vol/vol). The radioactivity contained in the organic phase was determined by liquid-scintillation counting in cpm units.
(§3) MAO-A and MAO-B activities were determined in rat brain homogenate in vitro following incubation with varying concentrations of the test compounds.
(§4) The results are the mean SEM, n=3 in triplicates.

Data set [2] concerns the target T2, rat brain MAO-B (Rattus norvegicus, UniProt P19643).
T2 construct: from tissue; host or cells: rat brain homogenate
T2 sequence (P19643 1-520): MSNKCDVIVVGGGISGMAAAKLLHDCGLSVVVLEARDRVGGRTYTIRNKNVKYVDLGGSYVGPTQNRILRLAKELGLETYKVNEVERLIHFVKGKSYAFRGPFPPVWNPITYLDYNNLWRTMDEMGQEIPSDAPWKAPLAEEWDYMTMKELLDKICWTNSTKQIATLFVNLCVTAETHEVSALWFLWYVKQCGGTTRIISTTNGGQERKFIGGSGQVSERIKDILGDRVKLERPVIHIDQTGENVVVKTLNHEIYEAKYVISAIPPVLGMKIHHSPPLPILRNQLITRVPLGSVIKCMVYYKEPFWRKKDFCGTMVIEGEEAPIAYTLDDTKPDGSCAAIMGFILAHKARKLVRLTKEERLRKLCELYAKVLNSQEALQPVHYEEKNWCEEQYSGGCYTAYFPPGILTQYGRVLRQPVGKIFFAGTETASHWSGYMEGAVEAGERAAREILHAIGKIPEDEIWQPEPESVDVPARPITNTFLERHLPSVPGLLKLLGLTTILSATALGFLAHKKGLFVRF
The data set can be described thus: biochemical. The following applies: for inhibition at 10 µM: read-out: percent inhibition MAO-B. The procedure:
as §1, §2, §3, §4

Data set [3] can be described thus: Metal chelation assay (UV-vis spectra of metal complexes). The class given is physicochemical. The following applies: 5% NH4Ac, pH=7; for complexation with Cu^2+ or Zn^2+: CuSO4 or ZnCl2, UV-vis; for interaction with Fe: FeCl3 or FeSO4, absorbance at 300 nm. The text has this:
Metal chelation, particularly iron chelation, is an important precondition for the antioxidative-function of the multi-functional compounds of the invention, because it is the excessive iron stores and iron-mediated generation of free radicals in the brain that are thought to be associated with neurodegenerative diseases. The novel strategy, according to the present invention, for the treatment of neurodegenerative diseases such as Alzheimer's disease is the design of pro-chelators that inhibit AChE with a concomitant release of the active chelators. This novel strategy has advantages over the current chelator strategy since it is capable not only of minimizing the potential toxicity associated with strong chelators such as the 8-hydroxyquinoline derivatives disclosed in WO 2004/041151, which might interfere with healthy metal metabolism in the brain, but it also offers multiple activities against AChE, Aβ aggregation, oxidative stress, and metal (Fe, Cu, Zn) dyshomeostasis in the brain. Therefore, a metal chelation assay was used to confirm that the new multifunctional pro-chelators that comprise an N,N-dialkylcarbamoyl moiety [N(RR′)CO—] linked to the oxygen at position 8 of quinoline would have little to no affinity for metal ions in their pro-drug form. When these pro-chelators bind to cholinesterase or AChE in the brain, the N,N-dialkylcarbamoyl moiety is dissociated, thus unmasking a free hydroxyl group at said position 8 of quinoline, turning the pro-chelators into active chelators, which passivate excess cerebral metal ions and protect neuronal cells against reactive oxygen species (ROS).
A spectrophotometric method was used for measurement of metal complexes of the multifunctional pro-chelators of the invention with metal ions selected from Zn^2+, Cu^2+, Fe^3+ and Fe^2+, and compared to the respective metal complexes of some known iron chelators disclosed in WO 2004/041151.
Thus, the metal chelating function of compound 13 and compound 23 as compared to M30 and HLA20, respectively, was measured by dissolving 0.1 mM or 0.2 mM of the test compounds in 5% NH4Ac, pH=7, in the presence and absence of 0.1 mM or 0.2 mM of the metal salts […], CuSO4, FeCl3 and FeSO4, and measuring the UV-vis spectra (Hewlett-Packard 8450A diode array spectrophotometer) of the various metal complexes formed. The results for M30 and compound 13 are shown in FIGS. 1A and 1B, respectively.

Where [4] appears, read: IC50 MAO-A, rat brain homogenate in vitro, mean SEM, n=3 in triplicates.
The mark [5] stands for this setting: IC50 MAO-B, rat brain homogenate in vitro, mean SEM, n=3 in triplicates.

As to `C#CCN(C)Cc1ccc(OC(=O)N(C)CC)c2ncccc12` [Compound 3, 5-((methyl(propargyl)amino)methyl)quinolin-8-yl ethyl(methyl)carbamate], the half-inhibitory concentration (IC50) in data set [1] (setting [4]) was less than 100 nM. Moreover, in data set [2], the inhibition at 10 µM was determined as 9%.

`C#CCN(C)Cc1ccc(OC(=O)N2CCCC2)c2ncccc12` [Compound 5, 5-((methyl(propargyl)amino)methyl)quinolin-8-yl pyrrolidine-1-carboxylate]: the IC50 in data set [1] (setting [4]) is 4.7 to 20 nM and 4.9 nM; in data set [2] (setting [5]) it was 5060 nM and 5600 nM.

As to `C#CCN(C)Cc1ccc(OC(=O)N2CCN(Cc3ccccc3)CC2)c2ncccc12` [Compound 13, 5-((methyl(propargyl)amino)methyl)quinolin-8-yl 4-benzyl piperazine-1-carboxylate], the “complexation with Cu^2+ or Zn^2+” value in data set [3] was “little or no complexation”. In data set [3], the “interaction with Fe” value was “weak interaction”. In addition, the IC50 in data set [1] (setting [4]) was 4.7 to 20 nM and 20 nM; in data set [2] (setting [5]) it was 84 nM.

Regarding `C#CCC1CCN(Cc2ccc(OC(=O)N(C)C)c3ncccc23)CC1` [Compound 23, 5-((4-(propargyl)piperidin-1-yl)methyl)quinolin-8-yl dimethylcarbamate], in data set [3], the “complexation with Cu^2+ or Zn^2+” value was “little or no complexation” and the “interaction with Fe” value is listed as “weak interaction”. Also, the “inhibitory effect on MAO-A” value in data set [1] (rat brain homogenate) is on record as “minor to none inhibitory effects”. Besides, the inhibition at 10 µM in data set [1] (read-out: percent inhibition MAO-A) came to 13%. Moreover, in data set [2] (rat brain homogenate), the “inhibitory effect on MAO-B” value is “minor to none inhibitory effects”. The inhibition at 10 µM in data set [2] amounted to 3%.

Take `C#CCN(C)Cc1ccc(O)c2ncccc12` [M30, reference compound]: the “binding of metal ions (shift of absorbance peak)” value in data set [3] (ZnCl2, CuSO4, FeCl3 and FeSO4) is “binds the respective metal ions”. Further, the figures for the half-inhibitory concentration (IC50) in data set [1] and in data set [2] were 37 ± 20 nM and 57 ± 10 nM, respectively.

As a reminder, the IC50 is the concentration needed to halve the response being measured. Lower therefore signals inhibition by little substance. The inhibition is the change of the read-out against control, counted positive when it falls.

(Values after US8802675B2, “Neuroprotective multifunctional compounds and pharmaceutical compositions comprising them” (priority 2009, dated 2014).)
